Assay results as given in paper PMC6048268, “Resveratrol Inhibits Key Steps of Steroid Metabolism in a Human Estrogen-Receptor Positive Breast Cancer Model: Impact on Cellular Proliferation” (Frontiers in Pharmacology, 2018).

What was measured:
[1] = target: estrogen sulfation, S9 fractions from human jejunum; parameters: method as in Furimsky et al. (2008); settings: ref Furimsky et al. (2008), read-out: Ki, inhibition of estrogen sulfation; cited from earlier work
MDA-MB-231 cells = experiment: Cell proliferation, Casy cell counting, MDA-MB-231; assay type: cell-based, human
Experimental: MDA-MB-231 and MCF-7 breast cancer cells were purchased from the American Type Culture Collection (ATCC; Manassas, VA, United States) and routinely cultivated at 37°C (95% humidity and 5% CO2) in phenolred-free Dulbecco’s modified Eagle medium F-12 (DMEM/F-12), fortified with 1% PenStrep®-solution and 10% fetal bovine serum (Invitrogen; Thermo Fisher Scientific, Inc., Waltham, MA, United States). All experiments were performed during the exponential growth phase of both cell lines. For the experiments, cells were seeded in 6-well-plates at a density of 1.0 × 10^6 cells per well and allowed to attach for 24 h.
Prior to cell counting with a Casy® TT Cell Counter (OLS OMNI Life Science, Bremen, Germany), the supernatant medium was removed and cells were detached using 400 μl TrypLe® solution (Invitrogen). All experiments were performed in triplicate, and the data were reported as the means ± standard deviation of all values.

serum E2 concentrations = test system: serum E2 concentrations; parameters: method as in Chow et al., 2014; settings: post-menopausal women, 1 g RES once a day for 12 weeks, non-significant; ref Chow et al., 2014; cited from earlier work
SULT2A1 mRNA = experiment: Real-time PCR, SULT2A1 mRNA expression in MCF-7 cells; assay type: cell-based, human; settings: 10 μM RES, 24 and 48 h, data not shown
Experimental: MCF-7 breast cancer cells were seeded in 6-well plates at a density of 1.0 × 10^6 cells per well and allowed to attach overnight. […] Expression profiling of genes of interest was performed as detailed previously ([Mechtcheriakova et al., 2007]; [Meshcheryakova et al., 2016]). Upon treatment, total RNA was isolated using peqGOLD TriFAST^TM reagent (VWR, Vienna, Austria) according to the manufacturer’s protocol. 1 μg RNA was used for cDNA generation using the High Capacity cDNA Reverse Transcription Kit (Thermo Fisher Scientific, Inc.) according to the instructions of the manufacturer. Real-time PCR analysis was performed in the 96-well plate format on a QuantStudio 12K Flex Real-Time PCR System (Thermo Fisher Scientific, Inc.). SULT1A1 and SULT2A1 were detected using the corresponding TaqMan Assays (Thermo Fisher Scientific, Inc.). […] HKGs primers were self-designed using the Primer Express 3.0 software (Thermo Fisher Scientific, Inc.) and validated using the Human Total RNA Master Panel (TaKaRa Bio, Inc., Saint-Germain-en-Laye, France), as described before ([Mechtcheriakova et al., 2007], [2011]); Primers: UBC forward: […]; UBC reverse: […]; GAPDH forward: […]; GAPDH reverse: […]; ACTB forward: […]; ACTB reverse: […]. For relative quantification, data were analyzed by applying the ΔΔCT method. […]

[2] = target: estrogen sulfation, S9 fractions from human liver; parameters: method as in Furimsky et al. (2008); settings: ref Furimsky et al. (2008), read-out: Ki, inhibition of estrogen sulfation; cited from earlier work

Oc1ccc(/C=C/c2cc(O)cc(O)c2)cc1 [RES, 3,5,4′-trihydroxy-trans-stilbene]
Ki [1]: 600 nM
number of viable cells (MDA-MB-231 cells; 2.5 μM RES, 48 h, seeded 1.0 × 10^6): 2.03 ± 0.16 × 10^6 cells
reduction of number of viable cells (MDA-MB-231 cells; 100 μM RES, 48 h): 68.6 ± 4.7%
IC50 (MDA-MB-231 cells; Homo sapiens, MDA-MB-231, 48 h, steroid-deprived, read-out: IC50 (inhibition of cell growth)): 15100 ± 4900 nM
effect of simultaneous incubation with RES and E1 on cell proliferation (MDA-MB-231 cells; RES 0–100 μM with E1, 48 h): no observable effect
increase in serum E2 concentrations (serum E2 concentrations): 22.4%
effect on SULT2A1 expression (SULT2A1 mRNA): marginally down-regulated
Ki [2]: 1100 nM
